The values below come from PubChem BioAssay AID256 (DTP/NCI, 2004).

“And” between values parts separate entries of the source, which are not always exact repeats. Equal entries are not always repeated. Toxic doses and inconclusive results are not listed.

This assay concerns CD2F1 mice, L1210 leukemia ip, survival T/C. The experiment in a line: NCI In Vivo Anticancer Drug Screen. Data for tumor model L1210 Leukemia (intraperitoneal) in CD2F1 (CDF1) mice. Particulars: higher = longer survival. The method, boiled down:
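In this screen, transplantable tumors were grown in mice given either the compound or its vehicle. Results were expressed as the treated measurement relative to the control measurement.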

Setting [1] is: endpoint: mean survival time, dose: 25.0 mg/kg/injection, schedule: Q04DX003 (ip), vehicle: saline.
The mark [2] stands for this setting: endpoint: mean survival time, dose: 100.0 mg/kg/injection, schedule: Q04DX003 (ip), vehicle: saline.
Where [3] appears, read: endpoint: mean survival time, dose: 100.0 mg/kg/injection, schedule: Q01DX009 (ip), vehicle: saline with Tween-80.
The mark [4] stands for this setting: endpoint: mean survival time, dose: 100.0 mg/kg/injection, schedule: Q04DX003 (ip), vehicle: saline with Tween-80.
The mark [5] stands for this setting: endpoint: mean survival time, dose: 200.0 mg/kg/injection, schedule: Q01DX009 (ip), vehicle: saline with Tween-80.
The mark [6] stands for this setting: endpoint: mean survival time, dose: 200.0 mg/kg/injection, schedule: Q04DX003 (ip), vehicle: saline with Tween-80.
Setting [7] is: endpoint: mean survival time, dose: 400.0 mg/kg/injection, schedule: Q01DX009 (ip), vehicle: saline with Tween-80.
Where [8] appears, read: endpoint: mean survival time, dose: 400.0 mg/kg/injection, schedule: Q04DX003 (ip), vehicle: saline with Tween-80.
Where [9] appears, read: endpoint: mean survival time, dose: 100.0 mg/kg/injection, schedule: Q01DX001 (ip), vehicle: saline with Tween-80.
Where [10] appears, read: endpoint: mean survival time, dose: 200.0 mg/kg/injection, schedule: Q01DX001 (ip), vehicle: saline with Tween-80.
Where [11] appears, read: endpoint: mean survival time, dose: 400.0 mg/kg/injection, schedule: Q01DX001 (ip), vehicle: saline with Tween-80.
[12] abbreviates: endpoint: mean survival time, dose: 100.0 mg/kg/injection, schedule: Q04DX002 (ip), vehicle: saline with Tween-80.
[13] abbreviates: endpoint: mean survival time, dose: 200.0 mg/kg/injection, schedule: Q04DX002 (ip), vehicle: saline with Tween-80.
[14] abbreviates: endpoint: mean survival time, dose: 50.0 mg/kg/injection, schedule: Q01DX009 (ip), vehicle: saline with Tween-80.

`COc1ccc2c(c1OC)C1C3CC=CC3C2C2=[N+]1CCc1cc3c(cc12)OCO3` (centres undefined): the T/C (endpoint: mean survival time, dose: 12.5 mg/kg/injection, schedule: Q04DX003 (ip), vehicle: saline) was 97 % of control; the T/C under setting [1] is 104 % of control; the T/C under setting [2] was 97 % of control.

Consider `CC(C(=O)c1ccccc1)=C(C(F)(F)F)C(F)(F)F`, for which the T/C under setting [3] is 98 % of control; the T/C under setting [4] was 91 % of control; the T/C under setting [5] is 97 % of control; the T/C under setting [6] is 97 % of control; the T/C under setting [7] is 103 % of control; the T/C under setting [8] was 100 % of control.

On to `CC(=O)NC1=C(N2CC2)C(=O)C(NC(C)=O)=C(N2CC2)C1=O`, for which the T/C is 164 % of control and 181 % of control (endpoint: mean survival time, dose: 0.5 mg/kg/injection, schedule: Q01DX009 (ip), vehicle: saline); 190 % of control (endpoint: mean survival time, dose: 1.0 mg/kg/injection, schedule: Q01DX007 (ip), vehicle: saline); 213 % of control and 230 % of control and 261 % of control (endpoint: mean survival time, dose: 1.0 mg/kg/injection, schedule: Q01DX009 (ip), vehicle: saline); 162 % of control (endpoint: mean survival time, dose: 1.0 mg/kg/injection, schedule: Q03DX003 (ip), vehicle: saline); 105 % of control (endpoint: mean survival time, dose: 2.0 mg/kg/injection, schedule: Q01DX007 (ip), vehicle: saline); 253 % of control and 100 % of control and 101 % of control (endpoint: mean survival time, dose: 2.0 mg/kg/injection, schedule: Q01DX009 (ip), vehicle: saline). Besides, the T/C (endpoint: mean survival time, dose: 2.0 mg/kg/injection, schedule: Q03DX003 (ip), vehicle: saline) is 198 % of control; the T/C (endpoint: mean survival time, dose: 2.0 mg/kg/injection, schedule: Q04DX003 (ip), vehicle: saline) is 191 % of control; the T/C (endpoint: mean survival time, dose: 4.0 mg/kg/injection, schedule: Q03DX003 (ip), vehicle: saline) was 107 % of control; the T/C (endpoint: mean survival time, dose: 4.0 mg/kg/injection, schedule: Q04DX003 (ip), vehicle: saline) is 217 % of control.

Turning to `CCOC(CNC(=O)NC1CCCCC1)OCC`, the T/C runs as follows: under setting [3], 113 % of control; under setting [4], 103 % of control; under setting [5], 104 % of control; under setting [6], 104 % of control; under setting [7], 108 % of control; under setting [8], 93 % of control.

Take `Nc1nc[nH]c(=O)c1N`: the T/C is 107 % of control under setting [9], 107 % of control under setting [10] and 102 % of control under setting [11].

For `O=C(CCCC(=O)c1ccccc1)OC1(c2ccccc2)CCCC(=O)O1` (centres undefined), the T/C (endpoint: mean survival time, dose: 50.0 mg/kg/injection, schedule: Q04DX002 (ip), vehicle: saline with Tween-80) is 98 % of control; the T/C under setting [12] was 98 % of control; the T/C under setting [13] was 94 % of control.

Regarding `COC(=O)C1=CCC[N+](C)(C)C1`, the T/C runs as follows: (endpoint: mean survival time, dose: 1.56 mg/kg/injection, schedule: Q04DX002 (ip), vehicle: saline) 93 % of control; (endpoint: mean survival time, dose: 3.13 mg/kg/injection, schedule: Q04DX002 (ip), vehicle: saline) 93 % of control; (endpoint: mean survival time, dose: 6.25 mg/kg/injection, schedule: Q04DX002 (ip), vehicle: saline) 93 % of control and 105 % of control.

Turning to `COc1ccccc1OC(=O)CCl`, the T/C was 111 % of control under setting [4], 101 % of control under setting [6] and 88 % of control under setting [8].

For `COc1cccc2c1C(=O)c1c(O)c3c(c(O)c1C2=O)CC(O)(C(=O)CO)CC3OC1CC(N)C(O)C(C)O1.[Cl][Pt+2][Cl].[NH2-].[NH2-]` (centres undefined), the T/C (endpoint: median survival time, dose: 4.0 mg/kg/injection, schedule: Q04DX003 (ip), vehicle: DMSO) is 152 % of control; the T/C (endpoint: median survival time, dose: 8.0 mg/kg/injection, schedule: Q04DX003 (ip), vehicle: DMSO) was 153 % of control and 154 % of control.

On to `FCCc1ccc(F)cc1`, for which the T/C reads like this: under setting [9], 101 % of control; (endpoint: mean survival time, dose: 100.0 mg/kg/injection, schedule: Q04DX003 (ip), vehicle: saline sonified) 93 % of control; under setting [10], 100 % of control; (endpoint: mean survival time, dose: 200.0 mg/kg/injection, schedule: Q04DX003 (ip), vehicle: saline sonified) 100 % of control; under setting [11], 101 % of control; (endpoint: mean survival time, dose: 400.0 mg/kg/injection, schedule: Q04DX003 (ip), vehicle: saline sonified) 98 % of control.

`COc1cc([N+](=O)[O-])ccc1NC(=O)N1CCCC(C)C1` (centres undefined): the T/C is 94 % of control and 95 % of control under setting [9]; 88 % of control and 93 % of control under setting [3]; 98 % of control under setting [12]; 101 % of control under setting [4]; 86 % of control and 89 % of control under setting [10]; 95 % of control and 106 % of control under setting [5]. Moreover, the T/C by setting is: under setting [13], 98 % of control; under setting [6], 103 % of control; under setting [11], 86 % of control; under setting [7], 88 % of control and 98 % of control; (endpoint: mean survival time, dose: 400.0 mg/kg/injection, schedule: Q04DX002 (ip), vehicle: saline with Tween-80) 96 % of control; under setting [8], 100 % of control.

As to `CCN(CC)CCCC(C)Nc1cc(C)nc(Nc2nc3cc(Cl)c(Cl)cc3[nH]2)n1` (centres undefined), the T/C is, setting by setting: (endpoint: mean survival time, dose: 5.0 mg/kg/injection, schedule: Q04DX003 (ip), vehicle: saline with Tween-80) 101 % of control; (endpoint: mean survival time, dose: 10.0 mg/kg/injection, schedule: Q04DX003 (ip), vehicle: saline with Tween-80) 94 % of control; (endpoint: mean survival time, dose: 20.0 mg/kg/injection, schedule: Q04DX003 (ip), vehicle: saline with Tween-80) 91 % of control.

As for `CCOC(=O)/C=C/c1c[nH]c(C(=O)OCC)c1`, the T/C was 93 % of control (endpoint: mean survival time, dose: 100.0 mg/kg/injection, schedule: Q04DX002 (ip), vehicle: other); 93 % of control (endpoint: mean survival time, dose: 200.0 mg/kg/injection, schedule: Q04DX002 (ip), vehicle: other); 100 % of control (endpoint: mean survival time, dose: 400.0 mg/kg/injection, schedule: Q04DX002 (ip), vehicle: other).

On to `CCCCC(c1ccccc1)P(=O)(OCC)OCC` (centres undefined), for which the T/C was 97 % of control (endpoint: mean survival time, dose: 25.0 mg/kg/injection, schedule: Q01DX009 (ip), vehicle: saline with Tween-80); 103 % of control under setting [14]; 102 % of control and 111 % of control under setting [3].

Regarding `CN(C)/C=N/N1CCCCCC1`, the T/C is 103 % of control under setting [1]; 97 % of control (endpoint: mean survival time, dose: 50.0 mg/kg/injection, schedule: Q04DX003 (ip), vehicle: saline); 96 % of control under setting [2].

Consider `CCOC(=O)C(=NCc1ccc2c(c1)OCO2)NO`, for which the T/C under setting [4] was 96 % of control, the T/C under setting [6] is 100 % of control and the T/C under setting [8] is 101 % of control.

`CC(C)CC(Br)C(=O)NCC(=O)O` (centres undefined): the T/C runs as follows: under setting [4], 95 % of control; under setting [6], 113 % of control; under setting [8], 105 % of control.

Consider `c1ccc(N=C(c2ccccc2)c2ccccc2)cc1`, for which the T/C runs as follows: under setting [4], 103 % of control; under setting [6], 93 % of control; under setting [8], 93 % of control.

As to `O=C(O)C(=O)O.[NH-]C(c1ccccc1)C([NH-])c1ccccc1.[Pt+2]` (centres undefined), the T/C was 118 % of control (endpoint: mean survival time, dose: 6.25 mg/kg/injection, schedule: Q04DX003 (ip), vehicle: saline with Tween-80) and 124 % of control (endpoint: mean survival time, dose: 12.5 mg/kg/injection, schedule: Q04DX003 (ip), vehicle: saline with Tween-80).

Take `O=C(c1ccccc1)N1CC2CC3OC3c3cccc1c32` (centres undefined): the T/C is, setting by setting: under setting [14], 102 % of control; under setting [3], 98 % of control; under setting [5], 94 % of control.

Regarding `CC(=O)c1ccc([NH-])c([NH-])c1.[Cl][Pt+2][Cl]`, the T/C reads like this: (endpoint: mean survival time, dose: 2.5 mg/kg/injection, schedule: Q01DX009 (ip), vehicle: distilled water + Tween-80) 102 % of control; (endpoint: mean survival time, dose: 5.0 mg/kg/injection, schedule: Q01DX009 (ip), vehicle: distilled water + Tween-80) 104 % of control; (endpoint: mean survival time, dose: 10.0 mg/kg/injection, schedule: Q01DX009 (ip), vehicle: distilled water + Tween-80) 109 % of control and 112 % of control; (endpoint: mean survival time, dose: 20.0 mg/kg/injection, schedule: Q01DX009 (ip), vehicle: distilled water + Tween-80) 114 % of control.

In the case of `O=C(O)CN(CC(=O)O)C1CCCCC1N(CC(=O)O)CC(=O)O.[Cl][Pt+2][Cl]` (centres undefined), the T/C was 96 % of control (endpoint: median survival time, dose: 10.0 mg/kg/injection, schedule: Q04DX003 (ip), vehicle: saline); 106 % of control (endpoint: median survival time, dose: 20.0 mg/kg/injection, schedule: Q04DX003 (ip), vehicle: saline); 103 % of control and 104 % of control (endpoint: median survival time, dose: 40.0 mg/kg/injection, schedule: Q04DX003 (ip), vehicle: saline); 106 % of control and 109 % of control (endpoint: median survival time, dose: 80.0 mg/kg/injection, schedule: Q04DX003 (ip), vehicle: saline).

For `CSc1ccc(N=C/C=C/c2ccccc2)cc1`, the T/C reads like this: under setting [4], 93 % of control; under setting [8], 91 % of control.

In the case of `CCCCCCCC(=O)Oc1ccc(N=Nc2ccc(OCC)cc2)cc1`, the T/C is, setting by setting: under setting [3], 93 % of control; under setting [4], 95 % of control; under setting [5], 90 % of control; under setting [6], 95 % of control; under setting [7], 98 % of control; under setting [8], 89 % of control.
